Experimental data reported in publication PMC8234462, “Novel Cyclophilin Inhibitor Decreases Cell Proliferation and Tumor Growth in Models of Hepatocellular Carcinoma” (Cancers, 2021).

Assays:
[1] = system: Unstimulated PBMCs; test: Cytotoxicity, CellTiter Glo; format: cell-based; details: Homo sapiens, PBMC, 72 h, 3 days of treatment, read-out: IC50 (50% reduction in cell viability)
Description: (§1) The evaluation of the off-target effects of NV651 was performed by ImQuest BioSciences Inc. (Frederick, MD, USA) by analyzing the cytotoxicity in a panel of primary cells. NV651 was evaluated at a concentration of 30 µM and five serial half-logarithmic dilutions in triplicate. The positive control compounds for each cell type were purchased from Sigma-Aldrich (St. Louis, MO, USA) and were as follows:
(§2) Human unstimulated or PHA-P-stimulated PBMCs were isolated by Ficoll hypaque centrifugation from whole blood and resuspended in a fresh tissue culture medium containing IL-2. Cells were seeded at a concentration of 5 × 10^5 /mL in a 96-well plate followed by NV651 treatment in triplicate for 3 days. Cell viability was measured with CellTiter Glo (Promega, Madison, WI, USA).
(§3) CellTiter Glo was performed to evaluate cell viability. CellTiter Glo Luminescent Cell Viability Assay (Promega, Madison, WI, USA) was performed according to the manufacturer’s instructions.

[2] = system: PHA-stimulated PBMCs; test: Cytotoxicity, CellTiter Glo; format: cell-based; details: Homo sapiens, PBMC, 72 h, 3 days of treatment, read-out: IC50 (50% reduction in cell viability)
Description: as §1, §2, §3

[3] = system: HUH7; test: Mitotic quantification by immunofluorescence; format: cell-based, human; details: 10 or 100 nM, 48 h
Description: HUH7 cells were seeded at a concentration of 4.5 × 10^4 cells/well in a 6-well plate containing coverslips, followed by the treatment of NV651 at 10 or 100 nM or the equivalent volume in DMSO. After 48 h, samples were fixed with 4% PFA (Histolab, Cat# 02176, Gothenburg, Sweden) and permeabilized with 0.1% Triton x-100 (Sigma-Aldrich, Cat# X100-500ML, St. Louis, MO, USA) diluted in PBS. Samples were stained with 1-µg/mL of rat anti-tubulin (Abcam, Cat# ab6161, Cambridge, UK) for one hour at room temperature. Lastly, DAPI and secondary antibody goat anti-rat IgG AF546 conjugate (Invitrogen, Cat# A11081, Waltham, MA, USA) were added. Coverslips were mounted on glass slides adding fluorescent mounting media (Dako, Agilent, Santa Clara, CA, USA). Thirteen pictures at 10× were taken with a Zeiss Confocal microscope and quantified for the number of mitotic cells in relation to the total number of cells with ImageJ.

[4] = system: HUH7; test: Cell proliferation assay: Acumen; format: cell-based; details: Homo sapiens, Huh-7, 168 h, 7 days, read-out: Abs IC50 growth inhibition
Description: (§4) Compound screening and comparison of the antiproliferative effect of NV651 and sorafenib were performed by Shanghai ChemPartner Co., Ltd. (Shanghai, China). Cells were seeded in a 96-well plate at the following concentrations: LIXC-003 400 cells/well, LIXC-004 1000 cells/well, LIXC-086 5000 cells/well, LIXC-066 1250 cells/well, LIXC-012 2000 cells/well, LIXC-006 1250 cells/well, HEPG2 1000 cells/well, HUH7 2000 cells/well and Hep3B2.1-7-Luc 1000 cells/well. Cells were treated with either sorafenib or NV651 at 0.004, 0.011, 0.034, 0.103, 0.309, 0.926, 2.778, 8.333, 25 µM or an equivalent volume with DMSO.
(§5) After 7 days, cells were trypsinized and collected. Fifty microliters of cell suspension were added to 50 µL of 2-µM Calcein AM (Invitrogen, Cat# C3099, Waltham, MA, USA) diluted in HBSS and placed in a black-walled 96-well plate. The plate was left for 30 min at room temperature, followed by a scan with Acumen eX3.
(§6) Growth inhibition for direct cell counting (%) by Acumen was calculated as:(1) 100−100∗Experimental count−Blank/DMSO count −Blank

[5] = system: HEPG2; test: Cell proliferation assay: Acumen; format: cell-based; details: Homo sapiens, 168 h, 7 days, read-out: Abs IC50 growth inhibition
Description: as §4, §5, §6

[6] = system: HEP3B2.1-7-Luc; test: Cell proliferation assay: Acumen; format: cell-based; details: Homo sapiens, 168 h, 7 days, read-out: Abs IC50 growth inhibition
Description: as §4, §5, §6

[7] = system: LIXC-004; test: Cell proliferation assay: Acumen; format: cell-based; details: Homo sapiens, 168 h, 7 days, read-out: Abs IC50 growth inhibition
Description: as §4, §5, §6

[8] = system: LIXC-006; test: Cell proliferation assay: Acumen; format: cell-based; details: Homo sapiens, 168 h, 7 days, read-out: Abs IC50 growth inhibition
Description: as §4, §5, §6

[9] = system: LIXC-086; test: Cell proliferation assay: Acumen; format: cell-based; details: Homo sapiens, 168 h, 7 days, read-out: Abs IC50 growth inhibition
Description: as §4, §5, §6

[10] = system: LIXC-012; test: Cell proliferation assay: Acumen; format: cell-based; details: Homo sapiens, 168 h, 7 days, read-out: Abs IC50 growth inhibition
Description: as §4, §5, §6

[11] = system: LIXC-003; test: Cell proliferation assay: Acumen; format: cell-based; details: Homo sapiens, 168 h, 7 days, read-out: Abs IC50 growth inhibition
Description: as §4, §5, §6

[12] = system: LIXC-066; test: Cell proliferation assay: Acumen; format: cell-based; details: Homo sapiens, 168 h, 7 days, read-out: Abs IC50 growth inhibition
Description: as §4, §5, §6

[13] = system: Bone marrow progenitors; test: Cytotoxicity, colony formation; format: cell-based, human; details: Homo sapiens, 336 h, 14 days of treatment, colonies counted
Description: The evaluation of the off-target effects of NV651 was performed by ImQuest BioSciences Inc. (Frederick, MD, USA) by analyzing the cytotoxicity in a panel of primary cells. NV651 was evaluated at a concentration of 30 µM and five serial half-logarithmic dilutions in triplicate. The positive control compounds for each cell type were purchased from Sigma-Aldrich (St. Louis, MO, USA) and were as follows: Unstimulated human peripheral blood mononuclear cells (PBMCs), phytohemagglutinin (PHA)-stimulated PBMCs, monocytes/macrophages, dendritic cells, hepatocytes, induced pluripotent stem cell (iPS) neurons: […] AZT, kidney cells (RPTEC): cisplatin and iPS cardiomyocytes: Doxazosin. Bone marrow progenitor cells (Invitrogen, Waltham, MA, USA) were suspended in cell culture medium (Iscove-modified Dulbecco medium) containing 15% FBS, 10% giant tumor-conditioned medium (Bone Marrow Plus, Sigma-Aldrich, St. […] Cells (1 × 10^5 cells/well) were seeded in 6-well plates containing NV651 in triplicate. Cells were incubated for 14 days, and colonies (more than 30 cells) were counted.

[14] = system: HUH7; test: Cell proliferation and viability with Acridine Orange and DAPI; format: cell-based, human
Description: For the quantification of the total cell number, cells were seeded at a concentration of 6000 cells/well for HEPG2 and 9000 cells/well for HUH7 in a 24-well plate. After 24 h of seeding, cells were treated with 10, 50 or 100 nM of NV651 or DMSO as the control dissolved in their correspondent media, fresh media with compound was added every 72 h. After 72 h of treatment, cells were harvested and stained with DAPI (Santa Cruz Biotechnology, Cat# SC3598, Dallas, TX, USA) and Acridine Orange (AO) (Sigma-Aldrich, Cat# A9231-10ML, St. Louis, MO, USA) at final concentrations of 5 µg/mL and 1.5 µg/mL, respectively. Quantification of the total cell number and nonviable cells was performed every day up to the tenth day. Total cell number was quantified with acridine orange staining, and the cell viability in each sample was quantified by the ratio between cells positive for DAPI staining (nonpermeable dye) and acridine orange staining.

In the case of `CC(=O)CCC1C(=O)NC(C(C)C)C(=O)NC(Cc2cc(O)cc(F)c2)C(=O)N2CCCC(N2)C(=O)OC(C(C)=CC=CC(=O)OC(C)(C)C)CC=CC=CC(O)C(C)C1O` (stereo not drawn) [NV651], the IC50 [1] is reported as > 30000 nM, the IC50 [2] is reported as > 30000 nM and the “number of mitotic counts” value [3] is reported as “increase in the number of mitotic counts”. It also gave an IC50 [4] of 3 nM, an IC50 [5] of 6.3 nM and an IC50 [6] of 9 nM. It also gave an IC50 [7] of 4 nM, an IC50 [8] of 8 nM and an IC50 [9] of 656 nM. The IC50 [10] was 94 nM, the IC50 [11] was 9 nM and the IC50 [12] was 169 nM. The IC50 [13] was > 30000 nM, the “cell viability (DAPI+ / AO+ cells)” value ([14]; after 10 days of exposure) was “significant decrease” and the “doubling time, elevated to” value ([14]; different concentrations of NV651 up to 10 days, from 35 h) was 155 h.
